Data set [1] addresses T1, TRalpha (thyroid hormone receptor alpha) (Homo sapiens, UniProt P10827).
T1 sequence (P10827 whole entry): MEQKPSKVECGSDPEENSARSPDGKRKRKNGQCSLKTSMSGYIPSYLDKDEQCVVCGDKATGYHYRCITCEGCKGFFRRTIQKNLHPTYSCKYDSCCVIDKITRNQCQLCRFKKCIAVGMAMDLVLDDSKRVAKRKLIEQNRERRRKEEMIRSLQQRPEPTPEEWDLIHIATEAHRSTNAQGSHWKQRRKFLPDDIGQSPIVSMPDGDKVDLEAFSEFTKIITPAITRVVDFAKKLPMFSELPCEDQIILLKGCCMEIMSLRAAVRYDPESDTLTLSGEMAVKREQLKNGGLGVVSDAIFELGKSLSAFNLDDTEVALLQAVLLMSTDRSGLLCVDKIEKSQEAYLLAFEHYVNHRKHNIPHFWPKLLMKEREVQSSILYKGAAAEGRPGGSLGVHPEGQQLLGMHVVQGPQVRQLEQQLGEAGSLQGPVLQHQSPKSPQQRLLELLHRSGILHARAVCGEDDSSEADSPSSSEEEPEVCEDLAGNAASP
The data set can be described thus: Agonist activity at TRalpha (unknown origin) at 1 uM by Lanthascreen TR-FRET assay relative to control. The note with it: read-out: Activity. In general terms: TR-FRET usually uses a lanthanide donor and a delayed reading to cut background.

Data set [2] in a line: Toxicity in F344 rat assessed as increase in heart and body weight ratio at 50 to 100 ug per 100 g body weight, ig administered daily for 3 days. To be noted: in vivo, po, 72 h, dose 50-100 µg, time 3 day.
Data set [3] in a line: Toxicity in F344 rat assessed as effect on serum AST/GOT level at 100 ug per 100 g body weight, ig administered daily for 3 days (reference value: 153 +/- 11 U/L). The note with it: in vivo, po, 72 h, dose 100 µg, time 3 day.
Data set [4] is described as follows: Toxicity in F344 rat assessed as effect on serum ALT/GPT level at 50 ug per 100 g body weight, ig administered daily for 3 days (reference value: 46 +/- 4 U/L). To be noted: in vivo, po, 72 h, dose 50 µg, time 3 day.
Data set [5] can be described thus: Toxicity in F344 rat assessed as effect on serum bilirubin level at 100 ug per 100 g body weight, ig administered daily for 3 days (reference value: 1.4 +/- 0.2 mg/dl). The note with it: in vivo, po, 72 h, dose 100 µg, time 3 day.
Data set [6] can be described thus: Toxicity in F344 rat assessed as effect on serum triglycerides level at 50 ug per 100 g body weight, ig administered daily for 3 days (reference value: 86.8 +/- 10.4 mg/dl). To be noted: in vivo, po, 72 h, dose 50 µg, time 3 day.
Data set [7] is described as follows: Toxicity in F344 rat assessed as effect on serum triglycerides level at 75 ug per 100 g body weight, ig administered daily for 3 days (reference value: 86.8 +/- 10.4 mg/dl). To be noted: in vivo, po, 72 h, dose 75 µg, time 3 day.
The target of data set [8] is T2, Thyroid hormone receptor alpha (Homo sapiens, UniProt P10827).
T2 sequence (P10827 whole entry): T1 sequence (P10827 whole entry)
The data set can be described thus: Agonist activity at TRalpha (unknown origin) by Lanthascreen TR-FRET assay.

In data set [9] the target is T3, Thyroid hormone receptor beta (Homo sapiens, UniProt P10828).
T3 sequence (P10828 whole entry): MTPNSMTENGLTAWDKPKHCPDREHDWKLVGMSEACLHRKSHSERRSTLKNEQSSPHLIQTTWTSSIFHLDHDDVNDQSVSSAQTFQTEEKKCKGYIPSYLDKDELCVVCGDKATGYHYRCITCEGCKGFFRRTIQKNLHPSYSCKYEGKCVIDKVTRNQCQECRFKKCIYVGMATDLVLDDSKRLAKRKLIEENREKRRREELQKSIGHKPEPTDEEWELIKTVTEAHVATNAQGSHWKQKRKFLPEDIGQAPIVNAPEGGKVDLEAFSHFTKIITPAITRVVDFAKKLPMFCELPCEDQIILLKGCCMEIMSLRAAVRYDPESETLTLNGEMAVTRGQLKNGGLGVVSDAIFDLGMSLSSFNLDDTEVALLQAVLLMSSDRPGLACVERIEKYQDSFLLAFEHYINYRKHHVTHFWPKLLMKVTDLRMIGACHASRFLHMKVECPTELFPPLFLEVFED
The data set can be described thus: Agonist activity at TRbeta (unknown origin) by Lanthascreen TR-FRET assay.

Molecules are shown by their SMILES. pEC50: −log10 of the molar value.

Turning to `Cc1cc(OCC(=O)O)cc(C)c1Cc1ccc(N)c(C(C)C)c1`, in data set [1], the activity at 1 µM was determined as 30%. Besides, the Activity entry in data set [2] was “Non-Toxic”; in [3], 102 U/L; in data set [4] it was 41 U/L; in data set [5] it was 1 mg/dL; in [6], 68.3 mg/dL; in data set [7], 74 mg/dL.

`Cc1cc(OCC(=O)O)cc(C)c1Cc1ccc(O)cc1`: the pEC50 is 7.27 in [8] and 7.49 in data set [9].

For the compound `CC(=O)Nc1ccc(Cc2c(C)cc(OCC(=O)O)cc2C)cc1C(C)C`, the Activity result in [2] is “Non-Toxic”; in data set [3] it was 108 U/L; in data set [4], 46 U/L; in data set [5], 1.1 mg/dL; in data set [6], 70.4 mg/dL; in data set [7], 67 mg/dL.

As a reminder, the pEC50 is the EC50 on a negative log10 scale, so that one unit is a factor of ten. A high value points to a low EC50.
